Reference: ChEMBL document CHEMBL3865848, “Macrocyclic Inhibitors of ERK2 Kinase” (ACS Med Chem Lett, 2016)

Target: Mitogen-activated protein kinase 1 (Homo sapiens, UniProt P28482)
Sequence (P28482 whole entry): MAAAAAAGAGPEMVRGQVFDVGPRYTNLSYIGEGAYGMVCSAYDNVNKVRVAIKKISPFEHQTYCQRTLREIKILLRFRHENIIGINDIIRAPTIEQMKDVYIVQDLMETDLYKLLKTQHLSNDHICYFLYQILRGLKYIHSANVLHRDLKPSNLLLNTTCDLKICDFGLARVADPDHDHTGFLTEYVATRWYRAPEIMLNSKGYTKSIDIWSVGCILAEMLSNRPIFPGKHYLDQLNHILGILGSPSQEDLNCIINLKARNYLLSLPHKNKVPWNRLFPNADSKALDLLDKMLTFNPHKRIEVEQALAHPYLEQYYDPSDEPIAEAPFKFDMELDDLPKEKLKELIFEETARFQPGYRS
Description: Inhibition of human activated ERK2 assessed as reduction in phosphorylation activity preincubated for 15 mins followed by addition of IMAP peptide as substrate and ATP measured after 60 mins by fluorescence polarization method

| Structure (SMILES) | IC50 |
| --- | --- |
| CCn1ncc2cc3nc(c21)CCCO[C@H](O)[C@H](c1ccccc1)NC(=O)N3 | 24.3 nM |
| CCn1ncc2cc3nc(c21)CCCO[C@@H](O)[C@H](c1ccccc1)NC(=O)N3 | 118 nM |
